Source: US20100184807A1, “Methods to inhibit tumor cell growth by using proton pump inhibitors” (Bio-Quant, Inc., priority 2008, published 2010)

Assays:
Format in all cases: cell-based
HUT78 (lymphoma) = test: MTT tumor cell growth assay; conditions: HUT78 cells, lansoprazole 1-100 μM, 48 hours
Procedure: (§1) In one study, adherent cells were plated approximately 16-24 hours before the day of the experiment in 180 μl growth media. On the day of the experiment, the plated adherent cells were analyzed and counted and suspension cells were plated in 180 μl growth media. 10× lansoprazole compounds and vehicle was prepared. The 10× lansoprazole compounds were prepared by diluting lansoprazole to final concentrations of 100 μM, 30 μM, 10 μM, 3 μM, and 1 μM. A vehicle was prepared by preparing a solution of PBS, equivalent to the volume used for 10 μM lansoprazole wherein the 1× solution constitutes ˜0.06% PBS. 10 μl of the various 10× lansoprazole solutions and the vehicle were added to the cells. The cells were incubated at 37° C., 5% CO2 for 48 hours. The media was then aspirated. The cell suspension was then spun at 1500 RPM for 10 minutes. The media was slowly removed. 200 μl of MTT solution was added to each well with a concentration of 0.863 mg/ml MTT in the growth media. The cells were incubated at 37° C., 5% CO2 for 4 hours and the medium is then aspirated. The plate containing the cell suspension was then spun at 1500 RPM for 10 minutes. The media was slowly removed using a multichannel pipettor. 100 μl of DMSO was then added to each well. The cells were incubated at 37° C., 5% CO2 for 5 minutes and the absorbance was obtained at 560 nm using a Dynex Opsys MR plate reader. The cells used for this procedure were the following cell lines: IGROV1 (ovarian cancer); OVCAR 8 (ovarian cancer); ES-2 (ovarian cancer); CAOV3 (ovarian cancer); OVCAR5 (ovarian cancer); SUDHL4 (lymphoma); RPMI8226 (myeloma); RPMI6666 (Hodgkin's lymphoma); NC37 (lymphoma); GDM-1 (leukemia); MC/CAR (prostate cancer); DU-145 (prostate cancer), J45-01 (leukemia), MOLT3 (leukemia), HUT78, J-gamma-1 (leukemia), MCF7 […], COL0205 (colon cancer), HL60 CLONE 15 (leukemia), T47D (breast cancer), P116 (intestinal cancer), KU812 (leukemia), SW620 (colon cancer), MK92-M1 (lymphoma), MV-4-11 (leukemia), HS578T (breast cancer), HT29 (colon cancer), HCT 116 (colon cancer), CAKI-1 (kidney cancer), A549 (lung cancer), H460 (lung cancer), A3 (colon cancer), MDA-MB231 […], MALME 3M (melanoma), RXF393 (kidney cancer), RS4.11 (leukemia), PC3 (prostate cancer), OVCAR3 (ovarian cancer), MDA-MB435 (melanoma), HUT102 (lymphoma), HL60 (leukemia), CCRF-CEM (leukemia), HUT78 (lymphoma), 786-O (kidney cancer), ACHN (kidney cancer), A498 (kidney cancer), H226 (lung cancer), H522 (lung cancer), HOP92 (lung cancer), SNB 19 (brain cancer), OVCAR4 (ovarian cancer), H9 (lymphoma), UO-31 (kidney cancer), HH (lymphoma), DAUDI (leukemia), LOXIMVI (melanoma), NAMALWA (lymphoma), EKVX (lung cancer), DOHH2 (lymphoma), SNB75 (brain cancer), SKMEL28 (melanoma), SKMEL5 (melanoma), SKMEL2 (melanoma), M14 (melanoma), UACC 257 (melanoma), H332M (lung cancer), KM12 (colon cancer), HCC2998 (colon cancer), G401 (kidney cancer), RS1184 (lymphoma), MC116 (leukemia), MOLT4 (leukemia), JM1 (liver cancer), HOP-62 (lung cancer), HCT-15 (colon cancer), SF-539 (brain cancer), SF295 (brain cancer), ST486 (lymphoma), U251 (brain cancer), and UACC-62 (melanoma).

EKVX (lung cancer) = test: MTT tumor cell growth assay; conditions: EKVX cells, lansoprazole 1-100 μM, 48 hours
Procedure: as §1

[1] = MTT tumor cell growth assay; conditions: MCF7 cells, lansoprazole 1-100 μM, 48 hours
Procedure: as §1

J45-01 (leukemia) = test: MTT tumor cell growth assay; conditions: J45-01 cells, lansoprazole 1-100 μM, 48 hours
Procedure: as §1

UACC-62 (melanoma) = test: MTT tumor cell growth assay; conditions: UACC-62 cells, lansoprazole 1-100 μM, 48 hours
Procedure: as §1

A549 (lung cancer) = test: MTT tumor cell growth assay; conditions: A549 cells, lansoprazole 1-100 μM, 48 hours
Procedure: as §1

DAUDI (leukemia) = test: MTT tumor cell growth assay; conditions: DAUDI cells, lansoprazole 1-100 μM, 48 hours
Procedure: as §1

SKMEL28 (melanoma) = test: MTT tumor cell growth assay; conditions: SKMEL28 cells, lansoprazole 1-100 μM, 48 hours
Procedure: as §1

P116 (intestinal cancer) = test: MTT tumor cell growth assay; conditions: P116 cells, lansoprazole 1-100 μM, 48 hours
Procedure: as §1

H9 (lymphoma) = test: MTT tumor cell growth assay; conditions: H9 cells, lansoprazole 1-100 μM, 48 hours
Procedure: as §1

MOLT4 (leukemia) = test: MTT tumor cell growth assay; conditions: MOLT4 cells, lansoprazole 1-100 μM, 48 hours
Procedure: as §1

KU812 (leukemia) = test: MTT tumor cell growth assay; conditions: KU812 cells, lansoprazole 1-100 μM, 48 hours
Procedure: as §1

CCRF-CEM (leukemia) = test: MTT tumor cell growth assay; conditions: CCRF-CEM cells, lansoprazole 1-100 μM, 48 hours
Procedure: as §1

OVCAR8 (ovarian cancer) = test: MTT tumor cell growth assay; conditions: OVCAR8 cells, lansoprazole 1-100 μM, 48 hours
Procedure: as §1

NAMALWA (lymphoma) = test: MTT tumor cell growth assay; conditions: NAMALWA cells, lansoprazole 1-100 μM, 48 hours
Procedure: as §1

A498 (kidney cancer) = test: MTT tumor cell growth assay; conditions: A498 cells, lansoprazole 1-100 μM, 48 hours
Procedure: as §1

SW620 (colon cancer) = test: MTT tumor cell growth assay; conditions: SW620 cells, lansoprazole 1-100 μM, 48 hours
Procedure: as §1

NK92MI = test: MTT tumor cell growth assay; conditions: NK92MI cells, lansoprazole 1-100 μM, 48 hours
Procedure: as §1

Measured: tumor cell growth reduction

Cc1c(OCC(F)(F)F)ccnc1C[S+]([O-])c1nc2ccccc2[nH]1 (stereo not drawn) [lansoprazole]
significant tumor cell growth reduction: HUT78 (lymphoma) | EKVX (lung cancer) | [1] | J45-01 (leukemia) | UACC-62 (melanoma) | A549 (lung cancer) | DAUDI (leukemia) | SKMEL28 (melanoma) | P116 (intestinal cancer) | H9 (lymphoma) | MOLT4 (leukemia) | KU812 (leukemia) | CCRF-CEM (leukemia) | OVCAR8 (ovarian cancer) | NAMALWA (lymphoma) | A498 (kidney cancer) | SW620 (colon cancer) | NK92MI
